We go through two compounds from patent publication US12172999B2, “Polymorphs” (SYNGENTA PARTICIPATIONS AG, priority 2016, dated 2024).

A short description of this series: Stability of polymorphs: competitive slurry of both forms, polymorphic form determined by high throughput pXRD. It is filed as physicochemical. The method, then:
Equal amounts of the polymorph of the invention and the Reference Form A polymorph were stirred in 33% methylcyclohexane/xylene for 4 days at a range of temperatures: 6° C., 35° C., 40° C. and 52° C. After the 4 days, the crystals were isolated and dried and their polymorphic form determined by high throughput pXRD. […] As such, formulations of the polymorph of the invention made and stored at up to 52° C. will be unlikely to show unwanted crystal growth.

Regarding `CCOC(=O)OC1=C(c2c(C)cc(Cl)cc2C)C(=O)N(C)C12CCN(OC)CC2` [polymorph of the invention], for the setting “equal amounts of both polymorphs stirred in 33% methylcyclohexane/xylene for 4 days at 6° C., 35° C., 40° C. and 52° C., crystals isolated, dried, pXRD”, the stable polymorphic form result is given as “the stable form over the temperature range studied”.

`CCOC(=O)OC1=C(c2c(C)cc(Cl)cc2C)C(=O)N(C)C12CCN(OC)CC2` [Reference Form A]: the “characteristic pXRD reflections in the isolated crystals” value (equal amounts of both polymorphs stirred in 33% methylcyclohexane/xylene for 4 days, all temperatures (6° C., 35° C., 40° C., 52° C.)) is “absent”.
